# In US20240132525A1, “BORON […], CO[…], METHODS AND USES THEREOF” (priority 2022, published 2024):
# Like-named read-outs stand apart in the source and are kept apart here.
# Key:
# GM-CSF/pSTAT5 = experiment: Cytokine function assay GM-CSF/pSTAT5 in lysed whole blood cells; format: cell-based; settings: Whole blood cell, read-out: IC50 GM-CSF
# Experimental: (§1) Cytokine Function Assay Protocols for IL-4/pSTAT6 and GM-CSF/pSTAT5
# GM-CSF/pSTAT5: • Whole blood from a healthy donor was lysed to remove red blood cells. Cells were plated onto a 96 well plate. Compound was added and incubated for 1 hour (at 37° C.). After 1 hour, cells were stimulated with GM-CSF for 15 minutes. Cells were fixed and stained with anti-pSTAT5 antibody. After staining, cells were read on a Beckman-Coulter CytoFLEX.
# [1] = Dog LM (liver microsome) assay; format: in vitro ADME; settings: Table 3a; predicted clearance as percent of liver blood flow, 1 μM, 1 mg/ml microsomal protein
# In short: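 Pooled Beagle liver microsomes (1 mg/ml protein), compound 1 μM, Tris pH 7.6 with 5 mM MgCl2, 37 °C, started with 1 mM NADPH; parent loss by LC-MS/MS over several time points.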
# PDE4B = PDE4B (Homo sapiens (Human), UniProt Q07343); experiment: PDE4B inhibition; format: biochemical; settings: Table 3a
# IL-4/pSTAT6 = experiment: Cytokine function assay IL-4/pSTAT6 in PBMC; format: cell-based; settings: PBMC, read-out: IC50 IL-4, Table 3a
# Experimental: as §1
# IL-4/pSTAT6: • PBMC from a healthy donor was plated onto a 96 w plate. Compound was added and incubated for 1 hour (at 37° C.). After 1 hour, cells were stimulated with IL-4 for 15 minutes. Cells were fixed and stained with anti-pSTAT6 antibody. After staining, cells were read on a Beckman-Coulter CytoFLEX.
# IL-31 = experiment: Cytokine function assay for IL-31 in DH82 cells; format: cell-based, canine; settings: Canis lupus familiaris
# Experimental: Cytokine Function Assay Protocol for IL-31
# The protocol for the cytokine function assay for IL-31 is set forth below: • 1. […] After 24 hr, wash with 37° C. pre-warmed PBS (100 uL/well). • 3. Add serum-free MEM, 90 uL per well, 2 hr, 37° C. • 4. Add 10 uL 10×IL-31 (40, 10, 2.5 ug/mL) in duplicate, 5 min, 37° C. • 5. Remove medium, add 60 uL lysis buffer per well. Agitate on a plate shaker (˜350 rpm) for 10 min at RT. • 6. […] Add 6 uL Acceptor Mix, cover with aluminum foil, quickly spin at 1000 rpm, shake at 120 rpm for 2 min, then incubate at RT for 1 hr. • 8. Add 6 uL Donor Mix, cover with aluminum foil, quickly spin at 1000 rpm, shake at 120 rpm for 2 min, then incubate at RT for 1 hr. • 9. Measure the fluorescence using EnVision™ plate reader.
# JAK1 = JAK1 (Homo sapiens (Human), UniProt P23458); experiment: Biochemical kinase assay (33P-ATP filter-binding), JAK1
# Text: (§2) Biochemical Kinase Assay Protocol (JAK)
# (§3) Reaction Procedure: • 1. […] Detected kinase activity by filter-binding method.
# JAK2 = JAK2 (Homo sapiens (Human), UniProt O60674); experiment: Biochemical kinase assay (33P-ATP filter-binding), JAK2
# Text: as §2, §3
# [2] = Pharmacokinetic profile after single oral administration in Beagle dogs; format: in vivo; settings: male Beagle dogs, single oral dose about 1.0 mg/kg, fasted; for concentration at 48 h: read-out: Mean Clast
# Experimental: Summary of Pharmacokinetic (PK) profile
# Three healthy male Beagle dogs were studied to determine a representative pharmacokinetic (PK) profile following a single oral administration of 1.0 mg/kg to each dog in a fasted state. Blood samples were collected at pre-dose, 0.25, 0.5, 1, 2, 4, 8, 24; 32, and 48 h post dose following oral administration (1 mg/mL in 10% Propylene glycol (PG), 45% PEG400, 7% Cremophor EL, 38% 50 mM citrate buffer pH 3.0 suspension or clear solution).
# [3] = tested on: recombinant canine IL-31 induced pruritic behaviors; experiment: IL-31 induced itch behavior in Beagle dogs; format: in vivo; settings: oral 1 mg/kg once daily for 5 days, IL-31 1.75 μg/kg i.v. on day 5
# Experimental: Ten healthy adult male Beagle dogs with no previous history of pruritus or skin disease were selected. […] Afterward, all dogs received repeated administration of oral solution and again intravenously recombinant canine IL-31 injections to assess inhibition of IL-31 induced itch behavior. (See, e.g., Gonzales, Vet. Dermatol. 2016, 27, 34-e10 and Pearson, Vet. Sci. 2023, 10, 369)
# An oral solution of a representative compound of the present disclosure, Example 33a, at 1 mg/kg once daily in the morning for five (5) days, was administered to each dog in a crossover design for the five (5) consecutive days. All dogs were fasted during the oral administration and thirty minutes (30 min) post oral drug administration. On day 5, all dogs were administered a recombinant canine IL-31 intravenously at the dose of 1.75 μg/kg.
# [4] = DH82, Table 3a, read-out: IC50 IL-31
# Chain of JAK2 (O60674 whole entry, species assumed): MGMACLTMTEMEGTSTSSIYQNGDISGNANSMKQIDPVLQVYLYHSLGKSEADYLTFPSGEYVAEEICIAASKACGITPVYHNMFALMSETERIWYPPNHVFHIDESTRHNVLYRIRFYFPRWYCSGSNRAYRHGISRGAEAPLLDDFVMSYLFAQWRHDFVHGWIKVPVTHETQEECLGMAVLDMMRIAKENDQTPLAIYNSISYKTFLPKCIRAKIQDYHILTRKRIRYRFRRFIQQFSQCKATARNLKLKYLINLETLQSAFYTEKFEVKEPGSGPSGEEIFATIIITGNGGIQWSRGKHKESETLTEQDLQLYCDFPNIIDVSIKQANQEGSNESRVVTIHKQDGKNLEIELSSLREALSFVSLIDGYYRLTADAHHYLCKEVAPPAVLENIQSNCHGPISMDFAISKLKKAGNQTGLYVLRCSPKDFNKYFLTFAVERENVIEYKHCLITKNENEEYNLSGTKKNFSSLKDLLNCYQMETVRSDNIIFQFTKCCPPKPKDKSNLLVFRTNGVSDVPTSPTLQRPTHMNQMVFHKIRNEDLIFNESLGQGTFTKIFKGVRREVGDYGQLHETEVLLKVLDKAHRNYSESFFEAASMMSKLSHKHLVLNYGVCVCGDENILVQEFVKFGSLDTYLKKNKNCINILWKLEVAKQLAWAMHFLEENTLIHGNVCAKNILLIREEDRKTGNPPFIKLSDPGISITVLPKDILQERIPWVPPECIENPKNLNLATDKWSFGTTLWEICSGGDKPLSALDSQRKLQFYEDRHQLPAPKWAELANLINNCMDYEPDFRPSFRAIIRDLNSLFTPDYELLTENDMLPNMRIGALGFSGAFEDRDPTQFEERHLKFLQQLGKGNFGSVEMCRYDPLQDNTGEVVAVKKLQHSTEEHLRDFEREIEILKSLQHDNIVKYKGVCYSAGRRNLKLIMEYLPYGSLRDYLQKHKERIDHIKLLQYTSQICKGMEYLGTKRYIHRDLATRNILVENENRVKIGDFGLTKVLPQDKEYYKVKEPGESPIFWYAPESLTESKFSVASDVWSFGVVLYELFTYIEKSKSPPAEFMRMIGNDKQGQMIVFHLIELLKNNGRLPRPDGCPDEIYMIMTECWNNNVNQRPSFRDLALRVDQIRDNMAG
# Chain of JAK1 (P23458 whole entry, species assumed): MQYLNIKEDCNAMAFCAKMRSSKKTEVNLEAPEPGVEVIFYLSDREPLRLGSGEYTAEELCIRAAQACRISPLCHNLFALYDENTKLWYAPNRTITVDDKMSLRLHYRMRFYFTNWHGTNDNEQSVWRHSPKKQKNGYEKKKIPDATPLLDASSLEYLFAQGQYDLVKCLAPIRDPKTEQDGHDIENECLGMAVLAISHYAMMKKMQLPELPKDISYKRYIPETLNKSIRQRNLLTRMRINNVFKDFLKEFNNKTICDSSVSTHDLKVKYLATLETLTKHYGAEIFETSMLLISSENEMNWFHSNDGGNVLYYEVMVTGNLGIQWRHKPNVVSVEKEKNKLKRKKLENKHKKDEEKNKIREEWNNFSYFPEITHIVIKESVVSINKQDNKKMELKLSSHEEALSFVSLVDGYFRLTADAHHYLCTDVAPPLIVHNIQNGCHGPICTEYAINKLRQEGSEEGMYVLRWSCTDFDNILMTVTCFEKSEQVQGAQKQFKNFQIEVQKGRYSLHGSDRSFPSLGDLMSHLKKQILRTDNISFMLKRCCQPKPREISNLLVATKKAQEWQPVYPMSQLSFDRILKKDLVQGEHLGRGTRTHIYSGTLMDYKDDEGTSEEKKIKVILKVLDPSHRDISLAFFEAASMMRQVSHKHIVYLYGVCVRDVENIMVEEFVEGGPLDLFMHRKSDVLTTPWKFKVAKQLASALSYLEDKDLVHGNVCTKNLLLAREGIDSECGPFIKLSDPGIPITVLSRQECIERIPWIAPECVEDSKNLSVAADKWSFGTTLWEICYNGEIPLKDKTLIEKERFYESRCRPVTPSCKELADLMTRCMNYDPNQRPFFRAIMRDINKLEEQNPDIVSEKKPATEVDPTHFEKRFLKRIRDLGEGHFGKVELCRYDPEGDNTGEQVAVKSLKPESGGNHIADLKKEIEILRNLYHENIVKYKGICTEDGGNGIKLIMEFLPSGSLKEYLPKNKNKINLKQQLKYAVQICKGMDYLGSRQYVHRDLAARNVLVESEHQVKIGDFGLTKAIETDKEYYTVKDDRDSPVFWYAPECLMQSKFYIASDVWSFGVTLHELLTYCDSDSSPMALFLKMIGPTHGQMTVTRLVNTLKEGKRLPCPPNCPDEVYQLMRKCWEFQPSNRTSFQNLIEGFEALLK
# Chain of PDE4B (Q07343 whole entry, species assumed): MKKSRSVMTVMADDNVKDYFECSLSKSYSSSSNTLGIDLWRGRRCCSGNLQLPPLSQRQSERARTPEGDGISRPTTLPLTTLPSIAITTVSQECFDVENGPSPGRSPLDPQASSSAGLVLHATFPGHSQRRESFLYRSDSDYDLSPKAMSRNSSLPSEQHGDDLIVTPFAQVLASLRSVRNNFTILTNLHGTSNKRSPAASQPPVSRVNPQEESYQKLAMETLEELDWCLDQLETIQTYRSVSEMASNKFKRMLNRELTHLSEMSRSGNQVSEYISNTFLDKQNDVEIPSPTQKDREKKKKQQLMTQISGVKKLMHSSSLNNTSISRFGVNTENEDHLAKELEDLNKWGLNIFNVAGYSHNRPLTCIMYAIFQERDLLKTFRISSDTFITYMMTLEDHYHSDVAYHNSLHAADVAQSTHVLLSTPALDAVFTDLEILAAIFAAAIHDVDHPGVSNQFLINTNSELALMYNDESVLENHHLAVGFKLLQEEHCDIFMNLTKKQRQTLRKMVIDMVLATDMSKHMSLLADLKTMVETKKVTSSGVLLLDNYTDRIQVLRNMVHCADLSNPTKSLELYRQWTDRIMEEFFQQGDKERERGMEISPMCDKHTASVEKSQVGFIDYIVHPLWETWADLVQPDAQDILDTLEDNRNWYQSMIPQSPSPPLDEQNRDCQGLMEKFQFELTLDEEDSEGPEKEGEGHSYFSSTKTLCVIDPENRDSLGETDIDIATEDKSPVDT
Structure (SMILES),IC50 (GM-CSF/pSTAT5) [nM],Dog LM QH [1] [%],IC50 (PDE4B) [nM],IC50 (IL-4/pSTAT6) [nM],IC50 (IL-31; [4]) [nM],"IC50 (JAK1; Table 3a, read-out: IC50 JAK1) [nM]","IC50 (JAK2; Table 3a, read-out: IC50 JAK2) [nM]","concentration at 48 h ([2]; dog, in vivo) [ng/mL]",Median Tlast [2] [h],"IC50 (IL-31; DH82, read-out: IC50 IL-31) [nM]",anti-pruritic effect compared to IL-31 baseline/alone [3],"Cmax ([2]; dog, in vivo) [ng/mL]","AUC(0-inf) ([2]; dog, in vivo, read-out: Mean AUCINF_obs) [ng·h/mL]","AUC(0-t) ([2]; dog, in vivo, read-out: Mean AUClast) [ng·h/mL]","half-life ([2]; dog, in vivo, read-out: Mean T1/2 (converted)) [h]","Tmax ([2]; dog, in vivo, read-out: Median Tmax) [h]","IC50 (JAK1; IC50 JAK1, Table 3a) [nM]","IC50 (JAK2; IC50 JAK2, Table 3a) [nM]"
"Cc1cnc(Nc2cc(F)c3c(c2)COB3O)nc1N[C@@H]1COCC[C@H]1C#N (single isomer, unassigned) [Example 029a, (trans)-3-[[2-[(7-fluoro-1-hydroxy-3H-2,1-benzoxaborol-5-yl)amino]-5-methyl-pyrimidin-4-yl]amino]tetrahydropyran-4-carbonitrile]",1170,<19.9,381,48.8,19.8,0.02,3.7,,,,,,,,,,,
"Cc1cnc(Nc2cc(Cl)c3c(c2)COB3O)nc1N[C@@H]1COCC[C@H]1C#N (single isomer, unassigned) [Example 031b, (trans)-3-((2-((7-chloro-1-hydroxy-1,3-dihydrobenzo[c][1,2]oxaborol-5-yl)amino)-5-methylpyrimidin-4-yl)amino)tetrahydro-2H-pyran-4-carbonitrile]",,<19.9,,,,,,7.98,48,,,,,,,,,
"Cc1cnc(Nc2ccc3c(c2)C(C)(C)OB3O)nc1N[C@@H]1COCC[C@H]1C#N (relative stereo) [Example 032, (trans)-3-[[2-[(1-hydroxy-3,3-dimethyl-2,1-benzoxaborol-5-yl)amino]-5-methyl-pyrimidin-4-yl]amino]tetrahydropyran-4-carbonitrile]",901,42.0,762,66.7,,0.6,3.3,,,51,,,,,,,,
"Cc1cnc(Nc2cc3c(c(C(F)(F)F)c2)B(O)OC3)nc1N[C@@H]1COCC[C@H]1C#N (single isomer, unassigned) [Example 033a, (trans)-3-[[2-[[1-hydroxy-7-(trifluoromethyl)-3H-2,1-benzoxaborol-5-yl]amino]-5-methyl-pyrimidin-4-yl]amino]tetrahydropyran-4-carbonitrile]",1700,<19.9,,136,19.1,0.4,8.1,4.74,48,,significant anti-pruritic effect,279,2560,2460,14.6,1,,
"N#CC1CCOCC1Nc1nc(Nc2cc(F)c3c(c2)COB3O)ncc1Cl (centres unmarked) [Example 050, 3-((5-chloro-2-((7-fluoro-1-hydroxy-1,3-dihydrobenzo[c][1,2]oxaborol-5-yl)amino)pyrimidin-4-yl)amino)tetrahydro-2H-pyran-4-carbonitrile]",2100,<19.9,832,94.8,23.9,0.2,1.2,,,,,,,,,,,
"Cc1cnc(Nc2ccc3c(c2)COB3O)nc1N[C@@H]1COCC[C@H]1C#N (single isomer, unassigned) [Example 026a, (trans)-3-((2-((1-hydroxy-1,3-dihydrobenzo[c][1,2]oxaborol-5-yl)amino)-5-methylpyrimidin-4-yl)amino)tetrahydro-2H-pyran-4-carbonitrile]",4240,<19.9,972,49.7,21.6,,,,,,,,,,,,0.4,1.6
"Cc1cnc(Nc2cc(C)c3c(c2)COB3O)nc1N[C@@H]1CCC[C@H]1C#N (relative stereo) [Example 002, (trans)-2-((2-((1-hydroxy-7-methyl-1,3-dihydrobenzo[c][1,2]oxaborol-5-yl)amino)-5-methylpyrimidin-4-yl)amino)cyclopentane-1-carbonitrile]",2100,<19.9,832,94.8,23.9,0.9,12.1,,,,,,,,,,,
"Cc1cnc(Nc2cc(F)c3c(c2)COB3O)nc1NC1COCCC1C#N (racemic) [Example 029, (trans)-3-((2-((7-fluoro-1-hydroxy-1,3-dihydrobenzo[c][1,2]oxaborol-5-yl)amino)-5-methylpyrimidin-4-yl)amino)tetrahydro-2H-pyran-4-carbonitrile]",2240,<19.9,978,58.3,49.5,0.2,9.8,,,,,,,,,,,
